Data: US11648289B2, “Antibacterial method” (priority 2016, dated 2023)
No end group written: not given here.

Tests used:
[1] = tested on: S. aureus LMGT 3272
Experimental: (§1) Bacterial strains, growth conditions, bacteriocins and antimicrobial assays. All the strains (see below) used in minimal inhibitory concentration (MIC) assays (Varahan et al., 2014, M. Bio. 5:e01726-01714) were grown in BHI medium (Oxoid) at 30° C. without shaking. A collection of E. faecium strains isolated from blood in patients from different European hospitals was received from Department of Medical Microbiology, University Medical Center Utrecht, the Netherlands. […] Synthesized peptides were solubilized to concentrations of 10.0-0.1 mg/ml in 0.1% (vol/vol) trifluoroacetic acid and stored at −20° C. until use. […] Bacteriocin activity was determined by microtiter plate assay as previously described (Holo et al., 1991, J. Bacteriol., 173:3879-3887). The MIC was defined as the minimal bacteriocin concentration that inhibited the growth of the indicator strain by at least 50% (50% of the turbidity of the control culture without bacteriocin) in 200 μl culture. CD Spectroscopy Circular dichroism (CD) spectra were recorded using a Jasco J-810 spectropolarimeter (Jasco International Co) calibrated with D-camphor-10-sulfonate (Icatayama Chemical). All measurements were made using a quartz cuvette (Sterna) with 0.1 cm path length. Samples were scanned five times with a scanning rate of 50 nm/min with a bandwidth of 0.5 nm and response time of 1 s over the wavelength range 190-250 nm. Spectra were recorded at different (30 and 50%) trifluoroethanol (TFE) (Aldridge) concentrations at 25° C. The approximate α-helical content of the protein was estimated from its molar ellipticity at 222 nm (Scholtz et al., 1991, Biopolymers 31:1463-1470). NMR Spectroscopy The experiments were run on a sample containing 1.0 mM EntK1, 50% D3-TFE (99.5% D) (Aldrich), Milli-Q water and 0.2 mM of 4,4-dimethyl-4-silapentane-1-sulfonic acid (DSS) (Larodan). 2D NOESY (Jeener et al., 1979, J. Magn. Reson., 71:4546-4553), 2D TOCSY (Braunschweiler and Ernst, 1983, J. Magn. Reson., 53:521-528), 2D DQCOSY, ^15N-HSQC (Davis et al., 1992, J. Magn. Reson., 98:207-216) and ^13C-HSQC (Hurd, 1991, J. Magn. Reson., 91:648-653) were recorded. The data was acquired on a 600 MHz Bruker Avance II spectrometer with four channels and a 5 mm TCI cryoprobe (Bruker Biospin). NOESY spectra with mixing times between 120 ms and 300 ms were obtained for both samples. TOCSY mixing times of 15-80 ms were used. The experiments were run at 298.15 K. Spectra were processed using the Topspin program (Bruker Biospin). 4,4-dimethyl-4-silapentane-1-sulfonic acid (DSS) was used as a chemical shift standard, and ^15N and ^13C data were referenced using frequency ratios as described in (Wishart et al., 1995, J. Biomol. NMR., 6:135-140). For visualization, assignment and integration of the spectra the computer program CARA was used (Keller, 2004, The Computer Aided Resonance Assignment Tutorial. CANTINA Verlag, Goldau, Switzerland). The spectra were assigned using standard methods. Dihedral angle restraints were obtained from the chemical shift values using the program TALOS-N(Shen and Bax, 2013, J. Biomol. NMR, 56:227-241). Nuclear Overhauser effect (NOE) distance restraints were calculated from the peak volumes in the NOESY spectra with NOESY mixing time of 200 ms. All structure calculations were made using the structure calculation program CYANA 2.1 (Guntert et al., 1997, J. Mol. Biol., 273:283-298; Herrmann et al., 2002, J. Mol. Biol., 319:209-227). The annealing macro in CYANA calculated 100 structures. The 20 structures with the lowest energy were kept and analyzed further. The root-mean-square deviation (RMSD) was calculated and the structures were visualized using MolMol (Koradi et al., 1996, J. Mol. Graph., 14:51-55, 29-32). Generation of bacteriocin resistant mutants of E. faecalis and E. faecium.

[2] = tested on: L. lactis LMGT 2084
Experimental: as §1

[3] = tested on: B. cercus LMGT 2711
Experimental: as §1

[4] = tested on: E. faecalis LMGT 3200
Experimental: as §1

[5] = tested on: E. faecium LMGT 2769
Experimental: as §1

[6] = tested on: E. faecalis LMGT 3386
Experimental: as §1

[7] = tested on: E. faecium LMGT 3313
Experimental: as §1

[8] = tested on: B. cereus LMGT 3025
Experimental: as §1

[9] = tested on: Bacillus cereus LMGT 2805
Experimental: as §1

[10] = tested on: E. faecium LMGT 3193
Experimental: as §1

[11] = tested on: E. faecium LMGT 3110
Experimental: as §1

[12] = tested on: L. cremoris LMGT 2057
Experimental: as §1

[13] = tested on: E. faecium LMGT 3104
Experimental: as §1

[14] = tested on: E. faecalis LMGT 3572
Experimental: as §1

[15] = tested on: Staphylococcus. aureus LMGT 3310
Experimental: as §1

[16] = tested on: E. hirae LMGT 3236
Experimental: as §1

[17] = tested on: E. faecium LMGT 3599
Experimental: as §1

[18] = tested on: E. faecalis LMGT 3567
Experimental: as §1

[19] = tested on: E. faecalis LMGT 3358
Experimental: as §1

[20] = tested on: L. curvatus LMGT 2355
Experimental: as §1

[21] = tested on: S. epidermidis LMGT 3026
Experimental: as §1

[22] = tested on: S. pneumoniae ds 221; conditions: ds 221, no rseP
Experimental: as §1

[23] = tested on: L. lactis LMGT 2233
Experimental: as §1

| Sequence | MIC 50 [1] | MIC 50 [2] | MIC 50 [3] | MIC 50 [4] | MIC 50 [5] | MIC 50 [6] | MIC 50 [7] | MIC 50 [8] | MIC 50 [9] | MIC 50 [10] | MIC 50 [11] | MIC 50 [12] | MIC 50 [13] | MIC 50 [14] | MIC 50 [15] | MIC 50 [16] | MIC 50 [17] | MIC 50 [18] | MIC 50 [19] | MIC 50 [20] | further results |
| --- | --- | --- | --- | --- | --- | --- | --- | --- | --- | --- | --- | --- | --- | --- | --- | --- | --- | --- | --- | --- | --- |
| MKFKFNPTGTIVKKLTQYEIAWFKNKHGYYPWEIPRC [EntK1] | >5.5 µM | >5.5 µM | 2.75 µM | >5.5 µM | 0.045 µM | >5.5 µM | 0.085 µM | >5.5 µM | >5.5 µM | 0.085 µM | 0.045 µM | >5.5 µM | 0.01 µM | >5.5 µM | >5.5 µM | 0.045 µM | 0.085 µM | >5.5 µM | 2.7 µM | 5.5 µM | MIC 50 [21]: >5.5 µM; MIC [22]: >5.5 µM; MIC 50 [23]: >5.5 µM |
| MKTILRFVAGYDIASHKKKTGGYPWERGKA [LsbB, reference compound] | >7 µM | >7 µM | >7 µM | >7 µM | >7 µM | >7 µM | >7 µM | >7 µM | >7 µM | >7 µM | >7 µM | >7 µM | >7 µM | >7 µM | >7 µM | >7 µM | >7 µM | >7 µM | >7 µM | >7 µM | MIC 50 [21]: >7 µM; MIC [22]: >7 µM; MIC 50 [23]: >7 µM |
| MLAKIKAMIKKFPNPYTLAAKLTTYEINWYKQQYGRYPWERPVA [EntEJ97] | 1.175 µM | 0.295 µM | >4.7 µM | 0.295 µM | 0.145 µM | 0.295 µM | 0.145 µM | 2.3 µM | >4.7 µM | 0.145 µM | 0.295 µM | 0.145 µM | 0.145 µM | 0.145 µM | 0.59 µM | 0.075 µM | 0.145 µM | 0.295 µM | 0.075 µM | 0.145 µM | MIC 50 [21]: >4.7 µM; MIC [22]: >4.5 µM; MIC 50 [23]: 0.145 µM |
